The text below walks through data of ChEMBL document CHEMBL3046523, “Protection of protein carbonyl formation by quercetin in erythrocytes subjected to oxidative stress” (Med Chem Res, 2010).

Test [1] relates to Erythrocyte. Briefly: Antioxidant activity in Homo sapiens (human) erythrocytes assessed as protection against t-BHP-induced oxidative stress at 0.1 to 100 uM. The format is functional, cell-based. To be noted: TDE = time-dependent effect.
Test [2] is described as follows: Antioxidant activity in plasma assessed as ABTS radical scavenging activity relative to trolox. The class given is functional, cell-free.
The test system of test [3] is Erythrocyte. Briefly: Antioxidant activity in Homo sapiens (human) erythrocytes assessed as protection against t-BHP-induced oxidative stress measured up to 180 min. The class given is functional, cell-based.

On to `O=c1c(O)c(-c2ccc(O)c(O)c2)oc2cc(O)cc(O)c12`, for which the Activity entry in test [1] is “tde”; in test [3], “Dose-dependent effect”. Further, the fold change (FC) in test [2] was determined as 6.
